Usually IC50 stands for the midpoint of a concentration-inhibition curve.

Some results are limits rather than exact numbers.

Holding throughout (format): cell-based
Data set [1] has as its system Mycobacterium abscessus. Briefly: microbe, parasite or virus in culture. To be noted: Mycobacteroides abscessus, 72 h, read-out: IC50 against M. abscessus.
Data set [2] has as its system Mycobacterium tuberculosis, strain H37Ra. Briefly: Antimycobacterial activity against M. tuberculosis H37Ra (luminescence, dose-response). The note with it: for IC50: Mycobacterium tuberculosis, 168 h, H37Ra lux, luminescence at day 7, top concentration 64 μM; for SI (selectivity index): calculated with the formula CC50/IC50 (MRC-5 cytotoxicity / H37Ra); for activity against Mtb H37Ra (in words): SAR discussion.

Data set [3] can be described thus: In vitro cytotoxicity, resazurin assay. The note with it: human, MRC-5 fibroblast cells (ATCC CCL-171), 3 days exposure. The procedure:
In vitro cytotoxicity was evaluated on the MRC-5 Homo sapiens […] fibroblast cell line (ATCC CCL-171). The MRC-5 cells were cultured in 75 cm^2 sterile Dulbecco’s modified Eagle’s medium (DMEM) supplemented with 10% heat-inactivated fetal calf serum in a 5% CO2 atmosphere at 37 °C. When a semiconfluent layer of cells was formed, the cells were trypsinized, washed with sterile PBS, seeded into a transparent, flat-bottomed 96-well plate at a density of 4 × 10^4 cells per well and left for recovery at 37 °C, 5% CO2 for at least 24 h. For each compound, a 2-fold serial dilution was made in complete DMEM with final concentrations ranging from 128 μM to 0.5 μM. Subsequently, the MRC-5 cells were exposed to the compounds by adding 100 μL of the serial dilutions to the wells. Test plates were incubated for 3 days in an atmosphere of 5% CO2 at 37 °C. For the resazurin assay, the cells were washed 2 times with 200 μL PBS, and 100 μL resazurin working solution was added per well. Subsequently, the plates were incubated at 37 °C, 5% CO2 for 3 h. To monitor the viable cell number after compound exposure, each well was analyzed using a microplate fluorometer equipped with a 560 nm excitation/590 nm emission filter set.
On the technique in general: Resazurin is reduced to fluorescent resorufin, in cell work by metabolically active cells.

As for `COc1c(N2C[C@@H]3CCCN[C@@H]3C2)c(F)cc2c(=O)c(C(=O)O)cn(C3CC3)c12` [Moxifloxacin], in data set [1], the IC50 stood at 1.74 µM.
Regarding `O=c1c(NCc2ccccn2)c(-c2ccc(Br)cc2)c1=O` [Compound 6b, 3-(4-Bromophenyl)-4-((pyridin-2-ylmethyl)amino)cyclobut-3-ene-1,2-dione], in data set [2], the concentration for half-maximal inhibition (IC50) came out at 3.49 µM and the “SI (selectivity index)” value is over 18.3.
For `O=c1c(NCc2ccccn2)c(-c2ccc(OC(F)(F)F)cc2)c1=O` [Compound 6d, 3-((Pyridin-2-ylmethyl)amino)-4-(4-(trifluoromethoxy)phenyl)cyclobut-3-ene-1,2-dione] the same measures were 13.8 µM and over 4.6.
Molecule `COc1ccc(-c2c(NCc3ccccn3)c(=O)c2=O)c(F)c1F` [Compound 6o, 3-(2,3-Difluoro-4-methoxyphenyl)-4-((pyridin-2-ylmethyl)amino)cyclobut-3-ene-1,2-dione] yielded an IC50 in data set [2] of over 64 µM.
In data set [2], `O=c1c(NCc2ccccn2)c(-c2ccc(OCc3ccc(F)cc3)cc2)c1=O` [Compound 6j, 3-(4-((4-Fluorobenzyl)oxy)phenyl)-4-((pyridin-2-ylmethyl)amino)cyclobut-3-ene-1,2-dione] displayed an IC50 of over 64 µM.
With `COc1ccc(-c2c(NCc3ccccn3)c(=O)c2=O)cc1Cl` [Compound 6l, 3-(3-Chloro-4-methoxyphenyl)-4-((pyridin-2-ylmethyl)amino)cyclobut-3-ene-1,2-dione], in data set [2], the IC50 was 1.51 µM and the “SI (selectivity index)” value is listed as over 42.4.
In data set [2], `O=c1c(NCc2ccccn2)c(-c2ccsc2)c1=O` [Compound 6y, 3-((Pyridin-2-ylmethyl)amino)-4-(thiophen-3-yl)cyclobut-3-ene-1,2-dione] showed an IC50 of over 64 µM.
With `O=c1c(NCc2ccccn2)c(-c2ccc3c(c2)OCCO3)c1=O` [Compound 6v, 3-(2,3-Dihydrobenzo[b][1,4]dioxin-6-yl)-4-((pyridin-2-ylmethyl)amino)cyclobut-3-ene-1,2-dione], in data set [2], the midpoint of inhibition, the IC50, lay at 3.37 µM and the “SI (selectivity index)” value is reported as over 19.0.
Consider `CC(C)(C)Oc1ccc(-c2c(NCc3ccccn3)c(=O)c2=O)cc1` [Compound 6f, 3-(4-(tert-Butoxy)phenyl)-4-((pyridin-2-ylmethyl)amino)cyclobut-3-ene-1,2-dione], for which, in data set [2], the IC50 came to 4.67 µM and the “SI (selectivity index)” value was over 13.7.
For `O=c1c(NCc2ccccn2)c(-c2ccoc2)c1=O` [Compound 6x, 3-(Furan-3-yl)-4-((pyridin-2-ylmethyl)amino)cyclobut-3-ene-1,2-dione] the same measures were 29.1 µM and over 2.2.
Regarding `CCCCOc1ccc(-c2c(NCc3ccccn3)c(=O)c2=O)c(F)c1F` [Compound 6q, 3-(4-Butoxy-2,3-difluorophenyl)-4-((pyridin-2-ylmethyl)amino)cyclobut-3-ene-1,2-dione], in data set [2], the IC50 was over 64 µM and the “activity against Mtb H37Ra (in words)” value was “completely inactive”.
As to `O=c1c(NCc2ccccn2)c(-c2ccc3c(c2)OCO3)c1=O` [Compound 6u, 3-(Benzo[d][1,3]dioxol-5-yl)-4-((pyridin-2-ylmethyl)amino)cyclobut-3-ene-1,2-dione], in data set [2], the 50% inhibitory concentration (IC50) was determined as 19.9 µM and the “SI (selectivity index)” value is listed as over 3.2.
As for `CCCOc1ccc(-c2c(NCc3ccccn3)c(=O)c2=O)c(F)c1F` [Compound 6p, 3-(2,3-Difluoro-4-propoxyphenyl)-4-((pyridin-2-ylmethyl)amino)cyclobut-3-ene-1,2-dione], in data set [2], the IC50 was over 64 µM and the “activity against Mtb H37Ra (in words)” value is “completely inactive”.
Consider `Cc1ccc(-c2c(NCc3ccccn3)c(=O)c2=O)cc1` [Compound 6a, 3-((Pyridin-2-ylmethyl)amino)-4-(p-tolyl)cyclobut-3-ene-1,2-dione], for which, in data set [2], the half-maximal inhibitory concentration (IC50) was found to be 2.01 µM and the “SI (selectivity index)” value is given as over 31.8.
In data set [2], `O=c1c(NCc2ccccn2)c(-c2cccc3ccccc23)c1=O` [Compound 6s, 3-(Naphthalen-1-yl)-4-((pyridin-2-ylmethyl)amino)cyclobut-3-ene-1,2-dione] registered an IC50 of over 64 µM.
Turning to `O=c1c(NCc2ccccn2)c(-c2ccc(OCc3ccccc3)c(Cl)c2)c1=O` [Compound 6k, 3-(4-(Benzyloxy)-3-chlorophenyl)-4-((pyridin-2-ylmethyl)amino)cyclobut-3-ene-1,2-dione], in data set [2], the IC50 is over 64 µM.
Regarding `CSc1ccc(-c2c(NCc3ccccn3)c(=O)c2=O)cc1` [Compound 6e, 3-(4-(Methylthio)phenyl)-4-((pyridin-2-ylmethyl)amino)cyclobut-3-ene-1,2-dione], in data set [2], the midpoint of inhibition, the IC50, lay at 4.56 µM and the “SI (selectivity index)” value is recorded as over 14.0.
In data set [2], `COc1nc2ccc(Br)cc2cc1[C@@H](c1ccccc1)[C@@](O)(CCN(C)C)c1cccc2ccccc12` [Bedaquiline, reference compound] returned an IC50 of 0.01 µM.
For `CCOc1c(C)cc(-c2c(NCc3ccccn3)c(=O)c2=O)cc1C` [Compound 6r, 3-(4-Ethoxy-3,5-dimethylphenyl)-4-((pyridin-2-ylmethyl)amino)cyclobut-3-ene-1,2-dione], in data set [2], the concentration for half-maximal inhibition (IC50) is 13.5 µM and the “SI (selectivity index)” value was over 4.7.
For `O=c1c(NCc2ccccn2)c(-c2ccc(O)cc2)c1=O` [Compound 6c, 3-(4-Hydroxyphenyl)-4-((pyridin-2-ylmethyl)amino)cyclobut-3-ene-1,2-dione] the same measures were 21.9 µM and over 2.9.
The corresponding values for `Cc1ccc(-c2c(NCc3ccccn3)c(=O)c2=O)s1` [Compound 6z, 3-(5-Methylthiophen-2-yl)-4-((pyridin-2-ylmethyl)amino)cyclobut-3-ene-1,2-dione] are 2.98 µM and over 21.5.
For `CC/C(=C(\c1ccccc1)c1ccc(OCCN(C)C)cc1)c1ccccc1` [Tamoxifen], the IC50 at 3 days in data set [3] amounted to 12.3 µM.
`COc1ccc(-c2c(NCc3ccccn3)c(=O)c2=O)c2ccccc12` [Compound 6t, 3-(4-Methoxynaphthalen-1-yl)-4-((pyridin-2-ylmethyl)amino)cyclobut-3-ene-1,2-dione] returned an IC50 in data set [2] of over 64 µM.
Same read-out and setting: to `O=c1c(NCc2ccccn2)c(-c2ccc(Oc3ccccc3)cc2)c1=O` [Compound 6h, 3-(4-Phenoxyphenyl)-4-((pyridin-2-ylmethyl)amino)cyclobut-3-ene-1,2-dione] belongs over 64 µM.
For the molecule `O=c1c(NCc2ccccn2)c(-c2ccc(F)c(F)c2)c1=O` [Compound 6n, 3-(3,4-Difluorophenyl)-4-((pyridin-2-ylmethyl)amino)cyclobut-3-ene-1,2-dione], in data set [2], the IC50 came out at 2.46 µM and the “SI (selectivity index)” value is over 26.0.
Take `COCCOc1ccc(-c2c(NCc3ccccn3)c(=O)c2=O)cc1` [Compound 6g, 3-(4-(2-Methoxyethoxy)phenyl)-4-((pyridin-2-ylmethyl)amino)cyclobut-3-ene-1,2-dione]: in data set [2], the IC50 amounted to 8.69 µM and the “SI (selectivity index)” value was over 7.4.
In data set [2], `O=c1c(NCc2ccccn2)c(-c2ccc(OCc3ccccc3)cc2)c1=O` [Compound 6i, 3-(4-(Benzyloxy)phenyl)-4-((pyridin-2-ylmethyl)amino)cyclobut-3-ene-1,2-dione] returned an IC50 of over 64 µM.
On to `CCOc1ccc2cc(-c3c(NCc4ccccn4)c(=O)c3=O)ccc2c1` [Compound 6w, 3-(6-Ethoxynaphthalen-2-yl)-4-((pyridin-2-ylmethyl)amino)cyclobut-3-ene-1,2-dione], for which, in data set [2], the half-inhibitory concentration (IC50) is over 64 µM and the “activity against Mtb H37Ra (in words)” value is “completely inactive”.
In data set [2], `O=c1c(NCc2ccccn2)c(-c2ccc(Cl)cc2C(F)(F)F)c1=O` [Compound 6m, 3-(4-Chloro-2-(trifluoromethyl)phenyl)-4-((pyridin-2-ylmethyl)amino)cyclobut-3-ene-1,2-dione] returned a half-inhibitory concentration (IC50) of over 64 µM.
